Test results: patent US9557319B2, “Cell-based arrays, methods of making, and methods of using” (University of Florida Research Foundation, Inc., priority 2010, dated 2017)
Where two headings read alike, the source gives them in different places. Marks after values point to notes of the source that are not given here.

Legend:
[1] = Loading efficiency of small molecules in microarrayed EVA films; assay type: physicochemical
Method: To embed molecules into the polymer matrix, they were first dissolved in an appropriate solvent, depending on their respective hydrophobicity. A stock solution of azide (99%, Acros), a hydrophilic molecule, was dissolved in dH2O whereas Nutlin-3a (EMD Chemicals, Gibbstown, N.J.) and camptothecin (Sigma), both hydrophobic molecules, were dissolved in DMSO. Dissolved drugs were then added to 5% EVA at a 1:10 ratio of solvent:EVA. Prior to printing, polymer mixtures were vortexed for 30 s and then homogenized for 1 min before being loaded onto the source plate of the robotic mini-arrayer.
To determine the loading efficiency of factors, polymer formulations were made as described above. Films derived from 100 μl EVA loaded with factors were then made on glass coverslips and allowed to dry overnight under vacuum. Films were removed from the glass substrates and weighed. Films were washed briefly with PBS before being placed in 1 ml toluene to dissolve the polymer. Samples were then analyzed using a Nanodrop-ND-1000 spectrophotometer. Standard curves were generated for each factor, and loading efficiency was calculated as the percent of drug embedded in the polymer compared to the theoretical drug concentration.

HCT116 cells [2] = assay: HCT116 proliferation (BrdU) on drug-eluting cellular microarray; assay type: cell-based, human; details: for drug sensitivity (1/D50) / Emax: non-proliferation, 24 h
Excerpt: (§1) Glass coverslips were cleaned in an oxygen plasma etcher (Terra Universal, Fullerton, Calif.). Arrays of isolated spots of (3-Aminopropyl) trimethoxysilane (NH2-terminated silane) (Sigma-Aldrich, St. Louis, Mo.) were robotically printed on clean coverslips using a Calligrapher Miniarrayer printer (Bio-Rad, Hercules, Calif.) with 1500 μm center to center distances and a pin diameter of 400 μm. The silane printed coverslips were then coated with 175 Å of titanium (Ti; 99.995% pure) and 225 Å of gold (Au; 99.999% pure) (Williams Advanced Materials, Buffalo, N.Y.). Following coating, gold-coated arrays were sonicated to remove gold from the amine spots, exposing NH2-terminated silane islands. The coverslips were incubated with 0.1 M, methyl-terminated alkanethiol (CH3(CH2)11SH) (Sigma) for 30 min. Substrates were incubated in 10% Pluronic® F-127 (BASF Corporation, USA) for 3 h and 1% heat-denatured BSA for 30 min to create a non-fouling surface around the adhesive amine islands. Three layers of the drug-loaded ethylene vinyl acetate (EVA) polymers were printed over the amine islands and placed in a desiccator between each successive layer. Poly-d-lysine (0.1%) was over-spotted onto the EVA films to promote cell attachment. […] Schematic diagrams of the arrays are illustrated in FIGS. 6A and 6B.
(§2) HCT116 (p53+/+, ATCC, Manassas, Va.) human colon cancer cells were maintained in McCoy's 5a Medium supplemented with 10% fetal bovine serum (Thermo Scientific, Waltham, Mass.), 1% penicillin G and 1% streptomycin (Thermo Scientific). The cells were cultured at 37° C. in a humidified incubator containing 5% CO2. Following microarray fabrication, 100,000 HCT116 cells were seeded over each array in 3 ml serum-free media and allowed to incubate on a rocking plate at room temperature until cell attachment to the EVA islands occurred, with minimal attachment to background, typically 10-15 min. Microarrays were gently washed in PBS, placed in a 35 mm petri dish with complete media, and placed in an incubator for 24-72 h.
(§3) Camptothecin-loaded microarrays were stained with Annexin V (BD Pharminigen), fixed in 4% paraformaldehyde, and placed in PBS with Hoechst dye 34580 (Invitrogen, USA) for 30 min. Azide-loaded microarrays were fixed with 4% paraformaldehyde and incubated with PBS containing Hoechst 34580 dye. Finally, nutlin-3a-loaded microarrays were fixed with 4% paraformaldehyde, stained with BrdU (BD Bioscience, San Jose, Calif.), and incubated in PBS containing Hoechst 34580 dye. All arrays were mounted with Fluoro-Gel (Electron Microscope Sciences, Hatfield, Pa.) and imaged using an Axiovert 200M microscope (Carl Zeiss, Oberkochen, Germany). Analysis was performed with Axiovision (Carl Zeiss, Oberkochen, Germany) by quantifying, in each drug-eluting island, the area of fluorescence and reported as relative fluorescence intensity (RFI).
(§4) Proliferation values were normalized to control (0 μM drug). Values for concentration-response curves were transformed to non-proliferation by subtracting the normalized value from 100%. Curve fitting analysis was performed to obtain Emax and D50 values using the equation E=E0+(Emax×D)/(D+D50) where E is the effect (either non-proliferation or apoptosis), E0 is the initial value, Emax is the maximum effect, D is the dose, and D50 is the dose at which a 50% maximum effect (Emax) is observed^34. Drug sensitivity values were obtained by taking the inverse of the D50 and multiplying by 100. Those values marked with “#” indicate that the r^2 value of the curve-fit was below 0.65. N/A values are present where negative parameters were obtained.
(§5) Hyperbolic curve fits were generated for the dose responses from a first drug in the presence of a fixed amount of a second drug for each combination (Tables 2 and 3, below). […]

HCT116 cells [3] = assay: HCT116 apoptosis (annexin V) on drug-eluting cellular microarray; assay type: cell-based, human; details: for drug sensitivity (1/D50) / Emax: apoptosis; for Emax: Homo sapiens, HCT-116, Camptothecin dose response
Excerpt: as §1, §2, §3, §4, §5

CA1 CCSCs = assay: CA1 patient-derived CCSC proliferation on drug-eluting microarray; assay type: cell-based, human; details: for proliferation with increasing drug exposure: CA1 cells, single drug; for drug sensitivity (1/D50) / Emax: non-proliferation
Method: ALDH^high spheres were generated from tumor cells obtained from patients with colon cancer. Isolated cells were cultured in serum-free media as previously described^14 (reference 14 is hereby incorporated by reference herein with respect to methods for culturing cells in serum-free media). Using these cultures, adherent cell growth was established with 0.1% gelatin (Millipore) coatings on tissue culture plates (TPP, Switzerland) and the cells were serially propagated. For CA1 and CA2 cells, 25,000 cells were tested per array. Cells were seeded in PBS with 0.1% gelatin and treated identically to the microarrays with HCT116.
as §3, §4

[4] = Camptothecin dose response, 2nd drug NUT 0 μM
[5] = Camptothecin dose response, 2nd drug NUT 1 μM
[6] = Camptothecin dose response, 2nd drug NUT 25 μM
[7] = Nutlin dose response, 2nd drug CPT 1 μM
[8] = Nutlin dose response, 2nd drug CPT 10 μM
[9] = Nutlin dose response, 2nd drug CPT 50 μM
[10] = Nutlin dose response, 2nd drug CPT 50 μM, CA1

## CC[C@@]1(O)C(=O)OCc2c1cc1n(c2=O)Cc2cc3ccccc3nc2-1 [Camptothecin]
[1]
  Loading efficiency (%): 92 +/− 3%
HCT116 cells [2]; 125 μM nutlin compared to 0 μM nutlin, HCT116 proliferation
  increase in sensitivity to camptothecin in presence of nutlin-3a: over 16 fold
HCT116 cells [2]; [4]
  drug sensitivity (1/D50): 4.83 +/− 0.54*
HCT116 cells [2]; Camptothecin dose response, 2nd drug NUT 0 μM, listed as camptothecin
  drug sensitivity (1/D50): 4.83
HCT116 cells [2]; [5]
  drug sensitivity (1/D50): 5.65 +/− 5.2
HCT116 cells [2]; [6]
  drug sensitivity (1/D50): 12.1 +/− 18
HCT116 cells [2]; Camptothecin dose response, 2nd drug NUT 125 μM
  drug sensitivity (1/D50): 78.1 +/− 26*
HCT116 cells [2]; Camptothecin dose response, 2nd drug NUT 125 μM, listed as camptothecin
  drug sensitivity (1/D50): 78.1
HCT116 cells [2]; Homo sapiens, HCT-116, 24 h, Camptothecin dose response, 2nd drug NUT 0 μM, read-out: Emax
  Emax: 86.4%
HCT116 cells [2]; Homo sapiens, HCT-116, 24 h, Camptothecin dose response, 2nd drug NUT 1 μM, read-out: Emax
  Emax: 88.8%
HCT116 cells [2]; Homo sapiens, HCT-116, 24 h, Camptothecin dose response, 2nd drug NUT 25 μM, read-out: Emax
  Emax: 86.3%
HCT116 cells [2]; Homo sapiens, HCT-116, 24 h, Camptothecin dose response, 2nd drug NUT 125 μM, read-out: Emax
  Emax: 79.1%
HCT116 cells [3]; 125 μM nutlin-3a compared to 0 μM nutlin-3a, HCT116 apoptosis
  decrease in the Emax of the camptothecin concentration response curve: 65%
HCT116 cells [3]; 72 h incubation
  proportion of HCT116 cells undergoing apoptosis on single-drug microarray: greater with increasing concentrations
HCT116 cells [3]; [4]
  drug sensitivity (1/D50): 2.53 +/− 1.1
HCT116 cells [3]; [5]
  drug sensitivity (1/D50): 83.3 +/− 76
HCT116 cells [3]; [6]
  drug sensitivity (1/D50): 15.9 +/− 2.8
HCT116 cells [3]; 2nd drug NUT 0 μM
  Emax: 21.6%
HCT116 cells [3]; 2nd drug NUT 1 μM
  Emax: 12.8%
HCT116 cells [3]; 2nd drug NUT 25 μM
  Emax: 9.31%
HCT116 cells [3]; 2nd drug NUT 125 μM
  Emax: 7.46%
CA1 CCSCs
  proliferation with increasing drug exposure: decreasing proliferation
CA1 CCSCs; Camptothecin dose response, 2nd drug NUT 0 μM, CA1
  drug sensitivity (1/D50): 10.8 +/− 16
CA1 CCSCs; Camptothecin dose response, 2nd drug NUT 1 μM, CA1
  drug sensitivity (1/D50): 1.97 +/− 7.7
CA1 CCSCs; Camptothecin dose response, 2nd drug NUT 25 μM, CA1
  drug sensitivity (1/D50): 3.18 +/− 0.40
CA1 CCSCs; Camptothecin dose response, 2nd drug NUT 125 μM, CA1
  drug sensitivity (1/D50): 0.62 +/− 1.8
CA1 CCSCs; Homo sapiens, Camptothecin dose response, 2nd drug NUT 0 μM, CA1, read-out: Emax
  Emax: 61.9%
CA1 CCSCs; Homo sapiens, Camptothecin dose response, 2nd drug NUT 1 μM, CA1, read-out: Emax
  Emax: 105%
CA1 CCSCs; Homo sapiens, Camptothecin dose response, 2nd drug NUT 25 μM, CA1, read-out: Emax
  Emax: 109%
CA1 CCSCs; Homo sapiens, Camptothecin dose response, 2nd drug NUT 125 μM, CA1, read-out: Emax
  Emax: 221%

## COc1ccc(C2=N[C@@H](c3ccc(Cl)cc3)[C@@H](c3ccc(Cl)cc3)N2C(=O)N2CCNC(=O)C2)c(OC(C)C)c1 [Nutlin-3a]
[1]
  Loading efficiency (%): 81 +/− 7%
HCT116 cells [2]; 50 μM CPT compared to 0 μM CPT, HCT116 proliferation
  increase in sensitivity to nutlin-3a on addition of camptothecin: over 5 fold
HCT116 cells [2]; HCT116, 24 h
  cell cycle arrest (ratio of non-proliferating cells) on single-drug microarray: dose-dependent cell cycle arrest
HCT116 cells [2]; Nutlin dose response, 2nd drug CPT 0 μM
  Emax: 108 +/− 110
HCT116 cells [2]; Nutlin dose response, 2nd drug CPT 0 μM, listed as Nutlin
  drug sensitivity (1/D50): 3.00 +/− 0.49*
HCT116 cells [2]; Nutlin dose response, 2nd drug CPT 0 μM, listed as nutlin-3a
  drug sensitivity (1/D50): 3.0
HCT116 cells [2]; [7]
  Emax: 96.1 +/− 25
  drug sensitivity (1/D50): 1.78 +/− 1.7
HCT116 cells [2]; [8]
  Emax: 86.5 +/− 19
  drug sensitivity (1/D50): 2.97 +/− 3.7
HCT116 cells [2]; [9]
  Emax: 81.4 +/− 1.9
HCT116 cells [2]; Nutlin dose response, 2nd drug CPT 50 μM, listed as Nutlin
  drug sensitivity (1/D50): 19.6 +/− 12
HCT116 cells [2]; Nutlin dose response, 2nd drug CPT 50 μM, listed as nutlin-3a
  drug sensitivity (1/D50): 19.6
HCT116 cells [3]; [8]
  drug sensitivity (1/D50): 2.48 +/− 0.83
HCT116 cells [3]; [9]
  drug sensitivity (1/D50): 143 +/− 98
HCT116 cells [3]; administered alone, microarray
  effect on proportion of HCT116 cells that underwent apoptosis: no effect
HCT116 cells [3]; nutlin-3a alone, 125 μM loading
  proportion of HCT116 cells that underwent apoptosis: 5.6%
CA1 CCSCs; 10 μM camptothecin present vs nutlin-3a alone, CA1
  increase in sensitivity to nutlin-3a: 75%
CA1 CCSCs; 50 μM camptothecin present vs nutlin-3a alone, CA1
  increase in Emax of the nutlin-3a concentration response curve: 115%
CA1 CCSCs
  proliferation with increasing drug exposure: decreasing proliferation
CA1 CCSCs; Nutlin dose response, 2nd drug CPT 0 μM, CA1
  Emax: 38.0
CA1 CCSCs; Nutlin dose response, 2nd drug CPT 0 μM, CA1, listed as Nutlin
  drug sensitivity (1/D50): 28.6 +/− 4.7*
CA1 CCSCs; Nutlin dose response, 2nd drug CPT 0 μM, CA1, listed as nutlin-3a
  drug sensitivity (1/D50): 28.6
CA1 CCSCs; Nutlin dose response, 2nd drug CPT 1 μM, CA1
  Emax: 34.7 +/− 5.9
CA1 CCSCs; Nutlin dose response, 2nd drug CPT 10 μM, CA1
  Emax: 50.9 +/− 0.15
CA1 CCSCs; Nutlin dose response, 2nd drug CPT 10 μM, CA1, listed as Nutlin
  drug sensitivity (1/D50): 50.0 +/− 1.3*
CA1 CCSCs; Nutlin dose response, 2nd drug CPT 10 μM, CA1, listed as nutlin-3a
  drug sensitivity (1/D50): 50.0
CA1 CCSCs; [10]
  Emax: 81.7
  drug sensitivity (1/D50): 55.6 +/− 180
